# US11339130B1 (Blade Therapeutics, Inc., priority 2016, dated 2022)
# Legend:
# Format in all cases: biochemical
# [1] = target: T1, Human Calpain 1/NS1 (Homo sapiens, UniProt P07384); assay: Calpain inhibition continuous fluorescence (FRET) assay, Human Calpain 1/NS1; settings: Column A; read-out: Human Calpain 1/NS1 IC50
# T1 sequence (P07384 1-714): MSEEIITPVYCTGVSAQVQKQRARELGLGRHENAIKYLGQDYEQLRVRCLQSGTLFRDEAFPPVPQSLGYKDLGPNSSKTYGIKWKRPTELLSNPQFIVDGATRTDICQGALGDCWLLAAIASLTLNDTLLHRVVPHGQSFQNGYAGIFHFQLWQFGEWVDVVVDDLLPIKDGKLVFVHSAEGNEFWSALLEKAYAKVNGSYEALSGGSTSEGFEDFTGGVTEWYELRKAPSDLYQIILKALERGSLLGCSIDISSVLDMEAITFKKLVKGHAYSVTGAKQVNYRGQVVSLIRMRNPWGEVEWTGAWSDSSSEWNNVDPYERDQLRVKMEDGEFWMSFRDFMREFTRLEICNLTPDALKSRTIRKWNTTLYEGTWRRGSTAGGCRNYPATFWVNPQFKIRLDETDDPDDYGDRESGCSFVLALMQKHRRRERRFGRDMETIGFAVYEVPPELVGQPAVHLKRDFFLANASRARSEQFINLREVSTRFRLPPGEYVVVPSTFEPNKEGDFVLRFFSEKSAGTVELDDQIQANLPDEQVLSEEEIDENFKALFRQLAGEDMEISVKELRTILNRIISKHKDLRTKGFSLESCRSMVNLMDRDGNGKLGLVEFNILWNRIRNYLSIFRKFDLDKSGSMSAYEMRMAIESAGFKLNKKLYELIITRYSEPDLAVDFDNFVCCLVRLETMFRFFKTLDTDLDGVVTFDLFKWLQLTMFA
# T1 sequence (P04632 1-268 partner): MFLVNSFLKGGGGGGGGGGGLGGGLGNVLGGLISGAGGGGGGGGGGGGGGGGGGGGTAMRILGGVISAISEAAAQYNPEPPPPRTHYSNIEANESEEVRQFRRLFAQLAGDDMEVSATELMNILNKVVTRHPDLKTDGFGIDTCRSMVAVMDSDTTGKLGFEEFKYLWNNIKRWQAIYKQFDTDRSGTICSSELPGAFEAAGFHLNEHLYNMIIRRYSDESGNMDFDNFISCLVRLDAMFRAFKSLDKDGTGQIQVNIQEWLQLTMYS
# Protocol: (§1) Calpain 1, 2, and 9 activity and inhibition thereof was assessed by means of a continuous fluorescence assay. The SensoLyte 520 Calpain substrate (Anaspec Inc) was optimized for detecting calpain activity. This substrate contains an internally quenched 5-FAM/QXL™ 520 FRET pair. Calpains 1, 2, and 9 cleave the FRET substrate into two separate fragments resulting in an increase of 5-FAM fluorescence that is proportional to calpain activity
# (§2) Assays were typically setup in black 384-well plates using automated liquid handling as follows. Calpain assay base buffer typically contains 50 mM Tris, pH 7.5, 100 mM NaCl and 1 mM DTT. Inhibitors were serially diluted in DMSO and used to setup 2× mixtures with calpains in the aforementioned buffer. After incubation at ambient temperature (25C), the reaction was initiated by adding a 2× mix of the fluorescent peptide substrate and CaCl2) (required for in-situ calpain activation) in the same buffer. Reaction progress curve data were typically collected for 10 min using excitation/emission wavelengths of 490 nm/520 nm on SpectraMax i3× or the FLIPR-Tetra plate readers (Molecular Devices Inc). Reaction rates were calculated from progress curve slopes typically over 1-5 min. Dose response curves (rate vs. log inhibitor concentration) were typically fit to a 4-parameter logistic function to extract IC50 values.
# [2] = target: T2, Human Calpain 2/NS1 (Homo sapiens, UniProt P17655); assay: Calpain inhibition continuous fluorescence (FRET) assay, Human Calpain 2/NS1; settings: Column B; read-out: Human Calpain 2/NS1 IC50
# T2 sequence (P17655 1-700): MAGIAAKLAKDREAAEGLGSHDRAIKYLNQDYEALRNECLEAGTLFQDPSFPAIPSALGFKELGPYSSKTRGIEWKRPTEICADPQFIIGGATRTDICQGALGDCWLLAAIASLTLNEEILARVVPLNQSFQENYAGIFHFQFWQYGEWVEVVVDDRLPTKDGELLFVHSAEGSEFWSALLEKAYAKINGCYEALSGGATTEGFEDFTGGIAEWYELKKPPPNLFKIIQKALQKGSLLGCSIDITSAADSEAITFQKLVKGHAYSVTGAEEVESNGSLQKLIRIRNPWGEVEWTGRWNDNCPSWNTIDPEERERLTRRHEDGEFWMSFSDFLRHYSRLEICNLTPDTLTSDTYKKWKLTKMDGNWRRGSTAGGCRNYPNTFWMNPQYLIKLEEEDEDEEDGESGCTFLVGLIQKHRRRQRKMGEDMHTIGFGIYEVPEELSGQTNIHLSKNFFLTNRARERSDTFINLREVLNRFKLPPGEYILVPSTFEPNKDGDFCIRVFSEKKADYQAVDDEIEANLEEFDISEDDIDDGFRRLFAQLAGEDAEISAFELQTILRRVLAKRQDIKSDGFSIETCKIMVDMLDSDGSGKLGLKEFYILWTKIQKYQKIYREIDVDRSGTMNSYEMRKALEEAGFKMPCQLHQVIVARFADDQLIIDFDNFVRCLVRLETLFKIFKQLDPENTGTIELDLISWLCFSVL
# T2 sequence (P04632 1-268 partner): T1 sequence (P04632 1-268 partner)
# Protocol: as §1, §2
# [3] = target: T3, Human Calpain 9/NS1 (Homo sapiens, UniProt O14815); assay: Calpain inhibition continuous fluorescence (FRET) assay, Human Calpain 9/NS1; settings: Column C; read-out: Human Calpain 9/NS1 IC50
# T3 sequence (O14815 1-690): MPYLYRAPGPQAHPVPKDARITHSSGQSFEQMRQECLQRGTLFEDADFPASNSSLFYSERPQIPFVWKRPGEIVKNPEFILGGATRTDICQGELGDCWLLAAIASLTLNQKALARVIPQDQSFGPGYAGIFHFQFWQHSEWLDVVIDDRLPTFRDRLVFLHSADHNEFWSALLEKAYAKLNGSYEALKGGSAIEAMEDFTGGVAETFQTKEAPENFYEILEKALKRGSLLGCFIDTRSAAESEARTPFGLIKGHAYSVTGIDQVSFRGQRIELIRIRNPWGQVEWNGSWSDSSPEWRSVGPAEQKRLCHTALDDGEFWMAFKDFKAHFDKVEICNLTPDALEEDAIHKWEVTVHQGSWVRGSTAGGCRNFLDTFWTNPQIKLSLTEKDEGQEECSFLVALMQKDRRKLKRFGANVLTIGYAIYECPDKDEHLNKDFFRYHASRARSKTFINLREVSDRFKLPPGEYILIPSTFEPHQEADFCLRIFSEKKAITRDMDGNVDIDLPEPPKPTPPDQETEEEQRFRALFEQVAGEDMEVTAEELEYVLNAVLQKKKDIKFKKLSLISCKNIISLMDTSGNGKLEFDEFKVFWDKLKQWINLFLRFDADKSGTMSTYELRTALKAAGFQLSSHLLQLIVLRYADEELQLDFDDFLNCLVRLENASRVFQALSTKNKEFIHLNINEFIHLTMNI
# T3 sequence (P04632 1-268 partner): T1 sequence (P04632 1-268 partner)
# Protocol: as §1, §2
SMILES,IC50 [1] [µM],IC50 [2] [µM],IC50 [3] [µM]
"Cc1cc(C(=O)N[C@@H](Cc2ccccc2)C(=O)C(=O)NC2CC2)n(-c2ncccc2C)n1 [Compound 67, (S)—N-(4-(cyclopropylamino)-3,4-dioxo-1-phenylbutan-2-yl)-3-methyl-1-(3-methylpyridin-2-yl)-1H-pyrazole-5-carboxamide]",> 10,> 10,> 10
"NC(=O)C(=O)[C@H](Cc1ccccc1)NC(=O)c1cncn1-c1n[nH]c2ccccc12 [Compound 69, (S)—N-(4-amino-3,4-dioxo-1-phenylbutan-2-yl)-1-(1H-indazol-3-yl)-1H-imidazole-5-carboxamide]",< 3,< 3,< 3
"NC(=O)C(=O)[C@H](Cc1ccccc1)NC(=O)c1cncn1-c1nc2ccccc2[nH]1 [Compound 70, (S)—N-(4-amino-3,4-dioxo-1-phenylbutan-2-yl)-1-(1H-benzo[d]imidazol-2-yl)-1H-imidazole-5-carboxamide]",< 3,< 3,< 3
O=C[C@H](Cc1ccccc1)NC(=O)c1cncn1-c1ncc(-c2ccccc2)cn1 [Compound 75],< 3,< 3,3 to 10
"O=C(NC1CC1)C(=O)[C@H](Cc1ccccc1)NC(=O)c1cncn1-c1cc(-c2ncco2)ccn1 [Compound 77, (S)—N-(4-(cyclopropylamino)-3,4-dioxo-1-phenylbutan-2-yl)-1-(4-(oxazol-2-yl)pyridin-2-yl)-1H-imidazole-5-carboxamide]",< 3,3 to 10,> 10
"Cc1nc(C(=O)N[C@@H](Cc2ccccc2)C(=O)C(N)=O)c(-c2ccccc2)[nH]1 [Compound 79, (S)—N-(4-amino-3,4-dioxo-1-phenylbutan-2-yl)-2-methyl-5-phenyl-1H-imidazole-4-carboxamide]",< 3,< 3,< 3
"Cc1cc(C(=O)N[C@@H](Cc2ccccc2)C(=O)C(N)=O)nn1-c1nc(-c2ccccc2)cs1 [Compound 80, (S)—N-(4-amino-3,4-dioxo-1-phenylbutan-2-yl)-5-methyl-1-(4-phenylthiazol-2-yl)-1H-pyrazole-3-carboxamide]",3 to 10,< 3,3 to 10
"Cc1cc(C(=O)N[C@@H](Cc2ccccc2)C(=O)C(=O)NC2CC2)n(-c2cnccn2)n1 [Compound 85, (S)—N-(4-(cyclopropylamino)-3,4-dioxo-1-phenylbutan-2-yl)-3-methyl-1-(pyrazin-2-yl)-1H-pyrazole-5-carboxamide]",< 3,< 3,< 3

# Second part, the compound after the results:
IC50 [1] [µM],IC50 [2] [µM],IC50 [3] [µM],SMILES
< 3,< 3,< 3,"NC(=O)C(=O)[C@H](Cc1ccccc1)NC(=O)c1cncn1-c1ccn(-c2ccccc2)n1 [Compound 68, (S)—N-(4-amino-3,4-dioxo-1-phenylbutan-2-yl)-1-(1-phenyl-1H-pyrazol-3-yl)-1H-imidazole-5-carboxamide]"
3 to 10,3 to 10,> 10,"O=C(NC1CC1)C(=O)[C@H](Cc1ccccc1)NC(=O)c1cncn1-c1nc2ccccc2[nH]1 [Compound 71, (S)-1-(1H-benzo[d]imidazol-2-yl)-N-(4-(cyclopropylamino)-3,4-dioxo-1-phenylbutan-2-yl)-1H-imidazole-5-carboxamide]"
< 3,< 3,> 10,"CC[C@@H](C)[C@H](NC(=O)c1c(C)noc1-c1ccccc1)C(=O)C(N)=O [Compound 73, N-((3S,4R)-1-amino-4-methyl-1,2-dioxohexan-3-yl)-3-methyl-5-phenylisoxazole-4-carboxamide]"
< 3,< 3,< 3,"NC(=O)C(=O)[C@H](Cc1ccccc1)NC(=O)c1cncn1-c1ncc(-c2ccccc2)cn1 [Compound 74, (S)—N-(4-amino-3,4-dioxo-1-phenylbutan-2-yl)-1-(5-phenylpyrimidin-2-yl)-1H-imidazole-5-carboxamide]"
< 3,< 3,3 to 10,"O=C(NC1CC1)C(=O)[C@H](Cc1ccccc1)NC(=O)c1cncn1-c1ncc(-c2ccccc2)cn1 [Compound 76, (S)—N-(4-(cyclopropylamino)-3,4-dioxo-1-phenylbutan-2-yl)-1-(5-phenylpyrimidin-2-yl)-1H-imidazole-5-carboxamide]"
> 10,3 to 10,< 3,"Cc1cc(C(=O)N[C@@H](Cc2ccccc2)C(=O)C(=O)NC2CC2)n(-c2cccc3ncccc23)n1 [Compound 78, (S)—N-(4-(cyclopropylamino)-3,4-dioxo-1-phenylbutan-2-yl)-3-methyl-1-(quinolin-5-yl)-1H-pyrazole-5-carboxamide]"
< 3,< 3,< 3,"O=C(NC1CC1)C(=O)[C@H](Cc1ccccc1)NC(=O)c1scnc1-n1ncc2ccccc21 [Compound 86, (S)—N-(4-(cyclopropylamino)-3,4-dioxo-1-phenylbutan-2-yl)-4-(1H-indazol-1-yl)thiazole-5-carboxamide]"
> 10,< 3,< 3,"O=C(NC1CC1)C(=O)[C@H](Cc1ccccc1)NC(=O)c1scnc1-n1cc(-c2ccccc2)cn1 [Compound 87, (S)—N-(4-(cyclopropylamino)-3,4-dioxo-1-phenylbutan-2-yl)-4-(4-phenyl-1H-pyrazol-1-yl)thiazole-5-carboxamide]"
